The NIST ThermoML archive (doi:10.1016/j.fluid.2007.10.010)
± gives the expanded uncertainty stated by the source.

Tests used:
[1] = 298.15 K; 101.33 kPa; Liquid; Vibrating tube method
[2] = refractive index (Na D-line) (dimensionless); conditions: 298.15 K; 101.33 kPa; Liquid; Standard Abbe refractometry

| SMILES | mass density [1] [kg/m3] | refractive index [2] |
| --- | --- | --- |
| CCCCCCC [heptane] | 679.466 ± 0.26 | 1.38517 ± 0.00068 |
| CCCCCCCCCCCCCCCC [hexadecane] | 771.15 ± 0.3 | 1.43232 ± 0.0007 |
| c1ccsc1 [thiophene] | 1058.5 ± 0.23 | 1.52581 ± 0.00068 |
| CCCCCC [hexane] | 655.06 ± 0.31 | 1.37287 ± 0.0007 |
| CCCCCCCCn1cc[n+](C)c1.O=S(=O)([N-]S(=O)(=O)C(F)(F)F)C(F)(F)F | 1320.76 ± 12 | 1.43331 ± 0.0012 |
